Test results published in patent publication US6117849A, “S-(+)-adenosylmethionine and 3'-azido-2', 3'-dideoxy-nucleoside complexes as potent inhibitors of HIV-replication” (Symbio Herborn Group GmbH & Co., priority 1996, dated 2000).
“And” between values parts separate entries of the source, which are not always exact repeats. Equal entries are not always repeated. Where two headings read alike, the source gives them in different places.

Experiments:
[1] = system: T-lymphocyte cell cultures; experiment: in vitro; details: for therapeutic index: in vitro, considering cytotoxicity
Description: (§1) Viability of the T cells was determined by means of a tetrazolium salt (MTT) metabolic assay.--(see also: Schwartz, O., et al., AIDS Rcs. Hum. Retroviruses, 4 441-448, 1988).

[2] = biological target: T1, reverse transcriptase (RT) (HIV-1 M:B_HXB2R, UniProt P04585); format: biochemical; design: A2: RT in cord-blood lymphocyte cultures infected with HIV from an AIDS patient; details: for Ki: RT
Description: The second in-vitro test uses the enzymatic activity of RT, testing the kinetic and inhibitory action of the molecular complexes. The cloning of the RT in biologically active form made it possible to have large quantities of the RT enzyme available for these studies (RT from Sigma, lot # R 9376).
The steady state reaction conditions for RT are chosen that approximate physiological conditions are met: pH 7.45 (37° C.), ionic strength of 150 mM, routinely a buffer was employed consisting of 50 mM TRIS-HCl, 100 mM KCl, 5 mM MgCl2, the addition of 10 μg/mL bovine serum albumin were included. […] The aforementioned precautions designed to avoid potential reduction of SAM in the presence of DTT are taken into accounts to preclude any distortions of the kinetic behavior of the RT enzyme in the presence of the various substrates e.g. as our molecular compounds. […] The enzyme concentrations of RT was approx. 20 nM, T-P (template-primer) […] and 25 μM of [^3 H]-dNTP (assay conditions are modified fro those of Mayunder et al., J. biol. Chem.,263, 15657, 1988). […] In case both parameters are effected to the same extent, then the inhibition is uncompetitive. In order to facilitate the difference between SAM kinetics and those for the molecular complexes we studied first SAM kinetics and subsequently the kinetics in the presence of the molecular complexes. […] Similar experiments have been carries out with dGTP.
The enzyme was assayed with 50 nM primer sites on poly (rA): oligo (dT), and variable concentrations of [^3 H] dTP as substrates in a reaction mixture as described above at pH 7.5 (37° C.).

[3] = biological target: T1, reverse transcriptase (RT); format: biochemical; design: A2: RT in cord-blood lymphocyte cultures infected with HIV from an AIDS patient; details: no DTT
in vitro = details: t-lymphocyte cultures
Description: as §1

[4] = biological target: T1, reverse transcriptase (RT); experiment: In vitro RT inhibition assay with F-dUP/F-dU or THF; format: biochemical; design: A2: RT in cord-blood lymphocyte cultures infected with HIV from an AIDS patient
[5] = in vivo; cited from earlier work
[6] = AZT; cited from earlier work
[7] = SAM and AZT levels in HIV-infected patients (plasma, CSF)
HIV-1 isolate of HIV IIB = experiment: HIV replication in de novo infected lymphocyte cultures, viral core protein p24 endpoint; format: cell-based, HIV-1 (in human peripheral blood lymphocytes)
Description: For this purpose, SAM has been tested in a dose response titration ranging from 1000 μg/mL to 10 μg/mL final concentrations for the ability to inhibit HIV replication in de novo infected cells. Endpoint in this assay was the quantitative determination of the concentration of the viral core protein p24 as described by Mueller et al. (Mueller, Ch., Moritz, R., Prigge, G., Weitzel, D., Kunze, R., Kage, A., Koettgen, E., Fresenius Z. Anal. Chem.,330, 352-353, 1988). […] The toxicity testing of cellular proliferation was performed according to J. Mosmann (J. Immunological Methods, 65, 55-63, 1983). […] All experiments were carried out in triplicate cultures, including those for the various concentrations of the molecular complexes tested.--The lymphocytes were infected with a standardized preparation of HIV-1 isolate of HIV IIB. The cells were sedimented by low speed centrifugation, the sediment resuspended in the assay buffer (standard), and the resuspended cells were inoculated by adjusting to the following conditions: 100 ng of viral core protein p24/mL and 3200 pg HIV RNA/mL, respectively. Normally 3×10^8 lymphocytes were suspended in 1 mL if the HIV inoculum, and incubated at 37° C. for 60 minutes. After washing the cells twice with 50 mL of culture medium the cells were resuspended at a concentration of 3×10^6 cells/mL in culture medium which contains 10 units/mL of human recombinant interleukin-2. 100 μL of this cell suspension were added to 100 μL of the pre-diluted solution of the compounds to be tested, without adding any salt or protein. The entire assay was cultivated in humidified atmosphere in the presence of 5% CO2 at 37° C. After the 4th day of infection the viral replication was determined in the lymphocyte cultures. The end point of the titration was the determination of the viral core protein p24 in the supernatant of each of the lymphocyte cultures. 150 μL of the supernatant were removed and transferred to a vial containing 50 μL/well SDS at a final concentration of 0.08% (w/w). The concentration of the synthesized p24 by the HIV infected cells was determined according to Mueller et al., using recombinant p24 as a standard for calibration.

[8] = biological target: T1, reverse transcriptase (RT); details: read-out: inhibiting concentration, 50% of RT activity; tosylate-bis-sulfate salt, with DTT; cited from earlier work
[9] = system: human peripheral blood lymphocytes; experiment: Cell toxicity by proliferation test in lymphocyte cultures
Description: For this purpose, SAM has been tested in a dose response titration ranging from 1000 μg/mL to 10 μg/mL final concentrations for the ability to inhibit HIV replication in de novo infected cells. Endpoint in this assay was the quantitative determination of the concentration of the viral core protein p24 as described by Mueller et al. (Mueller, Ch., Moritz, R., Prigge, G., Weitzel, D., Kunze, R., Kage, A., Koettgen, E., Fresenius Z. Anal. Chem.,330, 352-353, 1988). […] The toxicity testing of cellular proliferation was performed according to J. Mosmann (J. Immunological Methods, 65, 55-63, 1983). […] All experiments were carried out in triplicate cultures, including those for the various concentrations of the molecular complexes tested.--The lymphocytes were infected with a standardized preparation of HIV-1 isolate of HIV IIB. The cells were sedimented by low speed centrifugation, the sediment resuspended in the assay buffer (standard), and the resuspended cells were inoculated by adjusting to the following conditions: 100 ng of viral core protein p24/mL and 3200 pg HIV RNA/mL, respectively. […] After the 4th day of infection the viral replication was determined in the lymphocyte cultures. […] The concentration of the synthesized p24 by the HIV infected cells was determined according to Mueller et al., using recombinant p24 as a standard for calibration.

[10] = Stability / half-life in human plasma (chiral HPLC, fluorescence)
Excerpt: In order to determine the stability of these complexes in physiological conditions, the half-life times of the compounds were estimated in human plasma after separation on a chiral column and using a HPLC apparatus applying, monitoring the fluorescence of both components at 310 nm (excitation at 278 nm) after complete separation of the two peaks.

IL-β, IL-2 = experiment: Cytokine biosynthesis after stimulation of lymphocytes; format: cell-based; details: after phytohemagglutination stimulation
[11] = Intracellular metabolism to the triphosphate; format: in vitro ADME
[12] = rapidly dried in vacuo, water-free
HIV = HIV replication in T-lymphocyte cell cultures (cytotoxic effect and p24 production); format: cell-based
[13] = system: mitochondrial DNA replication; details: vs AZT
bone marrow stem cells = details: vs AZT
[14] = no DTT, pH 7.45-7.5, 37° C., read-out: KM
[15] = 1 h, complex: 400 mg SAM equivalent 250 mg AZT
[16] = HIV replication, p24, standard conditions
[17] = addition of human serum albumin

3'-azido-2',3'-2'-fluorothymidine [F))/AZT (AZT (2']
therapeutic index [1]: 7.000 | Ki ([2]; no DTT): 0.1 ± 0.01 µM | Km [2, 14]: 0.5 ± 0.01 µM | kcat [3]: 0.0483 s⁻¹

3'-azido-2',3'-dideoxyadennine [SAM/AZA]
therapeutic index [1]: 4.500 | Ki ([2]; no DTT): 0.28 ± 0.02 µM | Km [2, 14]: 0.71 ± 0.02 µM | kcat [3]: 0.0283 s⁻¹

3'-azido-2',3'-dideoxyguanosine [SAM/AZG]
therapeutic index [1]: 5.700 | Ki ([2]; no DTT): 0.24 ± 0.01 µM | Km [2, 14]: 0.7 ± 0.02 µM | kcat [3]: 0.05 s⁻¹

3'-azido-2',3'-dideoxyinosine [SAM/AZI]
Ki ([2]; no DTT): 0.13 ± 0.015 µM | Km ([2]; read-out: KM): 0.41 ± 0.03 µM | kcat [3]: 0.035 s⁻¹

3'-azido-2',3'-dideoxyuridine [SAM/AZU]
Km ([2]; read-out: KM): 0.69 ± 0.015 µM | kcat [3]: 0.035 s⁻¹

C[S+](CC[C@H](N)C(=O)O)C[C@H]1O[C@@H](n2cnc3c(N)ncnc32)[C@H](O)[C@@H]1O (single isomer, unassigned) [SAM C1]
selectivity ratio (in vitro): 2.1 | Km [2]: 0.53 ± 0.02 µM | kcat [2]: 0.317 s⁻¹ and 0.25 s⁻¹

c1ncc2c(n1)NCCN2 [5,6,7,8-tetrahydropteridine (THF), 5,6,7,8-tetrahydropteridine]
effect on inhibition of RT [4]: no significant inhibition of the RT

Cc1cn([C@H]2C[C@H](N=[N+]=[N-])[C@@H](CO)O2)c(=O)[nH]c1=O [AZT, 3'-azido-2',3'-deoxythymidine]
side effects upon prolonged administration [5]: peripheral neuropathological effects | toxicity at increased dose [5]: bone marrow toxicity | kcat [2]: approx. 1.5 sect^-1 | plasma half-life [6]: 1 h | Cmax ([7]; human, plasma, 250 mg): 2500 ng/mL | inhibition of HIV replication (HIV-1 isolate of HIV IIB; FIG. 1, p24): inhibited HIV replication in a dose dependent response

O=c1[nH]c(=O)n([C@H]2C[C@H](O)[C@@H](CO)O2)cc1F [F-dU]
effect on inhibition of RT [4]: no influence on the inhibition of RT

[3H]C12CNc3nc(N)[nH]c(=O)c3N1CN(c1ccc(C(=O)N[C@@H](CCC(=O)O)C(=O)O)cc1)C2 (stereo partly drawn) [N^5, N^10-methylene-6-[^3 H]-THF]
effect on inhibition of RT [4]: no significant inhibition of the RT

C[S+](CC[C@H](N)C(=O)O)C[C@H]1O[C@@H](n2cnc3c(N)ncnc32)[C@H](O)[C@@H]1O (stereo partly drawn) [SAM ts HSO4 H2 SO4]
selectivity ratio (in vitro): 2.4 | IC50 [8]: 250 to 501 µM | Km [2]: 0.51 ± 0.02 µM | kcat [2]: 0.333 s⁻¹ and 0.3 s⁻¹

Nc1ccn([C@H]2CC[C@@H](CO)O2)c(=O)n1 [ddC]
side effects upon prolonged administration [5]: peripheral neuropathological effects

(+)-SAM-3'-azido-2',3'-dideoxythymidine complex [SAM/AZT]
50% cytotoxicity ([1]; MTT, as mass concentration of complex): ~15.5 µg/mL | CC50 ([1]; read-out: 50% cytotoxicity, MTT): 250 µM | increase of the cell toxicity ([9]; SAM-AZT complex compared with SAM alone): approx. 35% | cell toxicity with respect to AZT alone ([9]; vs AZT alone): considerable of reduction of cell toxicity | half-life of SAM ([10]; from AZT-SAM complex): more than 10 h | half-life of SAM, average ([10]; from AZT-SAM complex): 12 h | half-life of AZT ([10]; from the complex, depends on load): 2 to 3 h | cytokine biosynthesis (IL-β, IL-2) (IL-β, IL-2): enhanced significantly | accumulation / conversion to triphosphate [11]: does not accumulate, but being readily converted to the triphosphate derivative | hygroscopicity [12]: hygroscopic | maximum inhibition (HIV; inhibition of the cytotoxic effect): 100% | IC50 (HIV; p24 production, read-out: IC50, inhibition of p24 production): 0.01 µM | toxicity/inhibition of mitochondrial DNA replication [13]: less toxic as well as inhibitory to mitochondrial DNA replication | toxicity for bone marrow stem cells (bone marrow stem cells): less toxic than AZT | AZT level (almost 50% of that in plasma) [7, 15]: 0.25 µg/mL | SAM level [7, 15]: 600 ng/mL | pharmacokinetic behaviour ([7]; HIV patients): lower elimination rate for SAM | dose reduction of AZT ([7]; administered as complex with SAM): approx. 30% | increase of SAM and AZT levels in CSF and plasma ([7]; approved dose 250 mg AZT at 4 h intervals): 25-30% | AZT level in plasma ([7]; complex: 400 mg SAM equivalent 250 mg AZT): 0.543 µg/mL | inhibitory constant Ki(1), at 50% inhibition (HIV-1 isolate of HIV IIB; [16]): ≈ 0.9 ng/mL | inhibitory constant Ki(2), at 50% inhibition (HIV-1 isolate of HIV IIB; [16]): ≈ 12.5 μg/mL | Ki (first, low) (HIV-1 isolate of HIV IIB; [17]): 0.0005 to 0.0008 µg/mL | Ki (second, high) (HIV-1 isolate of HIV IIB; [17]): ~10 µg/mL | Ki (first, low) (HIV-1 isolate of HIV IIB; ionic strength 0.075 M): 0.0006 to 0.0008 µg/mL | Ki (second, high) (HIV-1 isolate of HIV IIB; ionic strength 0.075 M): 8 to 10 µg/mL
